pIC50: −log10 of the molar value.
What was measured:
[1] = target: T1, ENaC (Epithelial Sodium Channel) (Mus musculus, UniProt Q61180+Q9WU38+Q9WU39); assay: Ussing Chamber assay (short circuit current, amiloride sensitive I_SC); type: cell-based; details: Mouse kidney M-1 cells, apical application, 37° C.
T1 construct: Mouse kidney M-1 cells were cultivated in DMEM; endogenous in cells; host or cells: mouse kidney M-1 cells (cortical collecting duct line), no transfection mentioned
T1 sequence (Q61180 1-699): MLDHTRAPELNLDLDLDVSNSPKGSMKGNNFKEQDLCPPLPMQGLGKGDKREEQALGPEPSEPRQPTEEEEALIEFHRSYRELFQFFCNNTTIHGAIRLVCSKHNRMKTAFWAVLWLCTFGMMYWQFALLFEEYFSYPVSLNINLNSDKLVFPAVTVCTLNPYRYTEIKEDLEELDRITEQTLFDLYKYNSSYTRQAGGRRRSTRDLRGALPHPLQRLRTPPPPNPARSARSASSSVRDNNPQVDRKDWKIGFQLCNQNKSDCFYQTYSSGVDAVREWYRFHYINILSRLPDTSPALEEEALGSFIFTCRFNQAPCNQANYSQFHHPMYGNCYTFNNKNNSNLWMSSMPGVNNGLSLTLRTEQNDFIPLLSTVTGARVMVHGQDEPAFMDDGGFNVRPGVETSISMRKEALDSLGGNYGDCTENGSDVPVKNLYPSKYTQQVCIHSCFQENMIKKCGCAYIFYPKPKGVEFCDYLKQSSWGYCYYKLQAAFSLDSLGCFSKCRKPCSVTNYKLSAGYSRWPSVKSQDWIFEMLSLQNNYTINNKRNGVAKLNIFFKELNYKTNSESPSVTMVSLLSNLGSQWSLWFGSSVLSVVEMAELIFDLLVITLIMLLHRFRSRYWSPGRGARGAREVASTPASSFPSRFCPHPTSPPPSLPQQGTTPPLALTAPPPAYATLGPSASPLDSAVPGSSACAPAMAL
T1 sequence (Q9WU38 1-638): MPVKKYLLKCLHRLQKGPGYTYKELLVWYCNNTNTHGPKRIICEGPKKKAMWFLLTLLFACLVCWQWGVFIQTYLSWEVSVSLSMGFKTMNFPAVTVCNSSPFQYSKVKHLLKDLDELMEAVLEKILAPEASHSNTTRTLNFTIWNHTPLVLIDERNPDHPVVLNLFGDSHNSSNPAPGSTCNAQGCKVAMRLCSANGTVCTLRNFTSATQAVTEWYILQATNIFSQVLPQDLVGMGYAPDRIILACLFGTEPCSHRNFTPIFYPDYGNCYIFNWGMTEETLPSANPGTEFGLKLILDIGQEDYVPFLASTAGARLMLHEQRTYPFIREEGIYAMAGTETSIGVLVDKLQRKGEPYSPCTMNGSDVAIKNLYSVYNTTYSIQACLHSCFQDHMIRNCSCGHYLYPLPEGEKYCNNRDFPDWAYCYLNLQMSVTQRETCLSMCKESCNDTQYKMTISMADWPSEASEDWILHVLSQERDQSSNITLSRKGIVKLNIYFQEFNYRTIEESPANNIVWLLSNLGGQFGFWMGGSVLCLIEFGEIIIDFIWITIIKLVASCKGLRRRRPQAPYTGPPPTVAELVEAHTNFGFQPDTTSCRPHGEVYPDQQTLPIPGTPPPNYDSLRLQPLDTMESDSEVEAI
T1 sequence (Q9WU39 1-655): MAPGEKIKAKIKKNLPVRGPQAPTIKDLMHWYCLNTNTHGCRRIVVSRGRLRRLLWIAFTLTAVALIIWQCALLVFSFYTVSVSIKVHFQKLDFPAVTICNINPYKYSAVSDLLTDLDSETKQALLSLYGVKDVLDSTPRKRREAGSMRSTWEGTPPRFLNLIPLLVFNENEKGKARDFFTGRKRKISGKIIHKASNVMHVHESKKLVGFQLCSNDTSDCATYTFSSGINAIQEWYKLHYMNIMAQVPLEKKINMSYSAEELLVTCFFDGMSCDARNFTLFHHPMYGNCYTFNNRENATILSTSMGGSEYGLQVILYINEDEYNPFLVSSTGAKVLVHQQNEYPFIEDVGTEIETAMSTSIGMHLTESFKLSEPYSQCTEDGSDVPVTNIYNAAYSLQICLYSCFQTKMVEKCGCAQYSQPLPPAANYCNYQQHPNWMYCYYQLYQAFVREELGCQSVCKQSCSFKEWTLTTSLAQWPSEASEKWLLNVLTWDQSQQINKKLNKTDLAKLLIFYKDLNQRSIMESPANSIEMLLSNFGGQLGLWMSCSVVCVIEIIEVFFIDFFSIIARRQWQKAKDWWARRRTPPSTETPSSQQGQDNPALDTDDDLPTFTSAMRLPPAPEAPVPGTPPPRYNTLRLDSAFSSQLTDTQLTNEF
Method: The IC50 values of the example compounds given above were determined in the Ussing Chamber assay. Ussing Chamber: Mouse kidney M-1 cells were cultivated in DMEM containing 5% FCS and 5 μM dexamethasone for 10 to 12 days on polyester transwell filters. Filters were inserted into a teflon-coated well-plate which fit into the ussing chamber system. Prior to measurement the medium of M-1 cells was replaced with Caco-2 transport buffer (Invitrogen, Germany). During measurements, the Ussing chamber temperature was kept at 37° C. Short circuit currents (I_sc) were measured in the voltage-clamp mode with the software package Lab View for data acquisition and analysis. The transepithelial electrical resistance (TEER) was determined by the application of voltage steps of ±5 mV every 5 sec. Compounds were administered at a final concentration of 3 μM or at increasing concentrations (1-3-10 μM) to the apical solution. At the end of each experiment the amiloride sensitive I_SC was measured by adding 3 μM amiloride to the apical compartment. Results are expressed as inhibition in percent of the amiloride effect or as IC50.

[2] = Permeability in CALU-3 cells; type: in vitro ADME; details: human, CALU-3 monolayers, pH 7.4, 37° C., 10 μM compound; for Papp A→B at 90 min, 10 μM: apical-to-basal; for Papp B→A at 90 min, 10 μM: basal-to-apical
Method: Permeability measurements across polarized, confluent CALU-3 cell monolayers grown on permeable filter supports are used to provide information on the potential of a compound to pass the lung epithelium. Apparent permeability coefficients (Papp) of the compounds across the CALU-3 cell monolayers are measured (pH 7.4, 37° C.) in apical-to-basal (AB) and basal-to-apical (BA) transport direction. […] CALU-3 cells (1-2×10^5 cells/1 cm^2 area) are seeded on filter inserts (Costar transwell polycarbonate filters, 0.4 μm pore size) and cultured (for 10-12 days DMEM) until tight monolayers are formed. Compounds of interest are dissolved in appropriate solvent (DMSO, 10 mM stock solution). Stock solutions are diluted with HTP-4 buffer (128.13 mM NaCl, 5.36 mM KCl, 1 mM MgSO4, 1.8 mM CaCl2, 4.17 mM NaHCO3, 1.19 mM Na2HPO4×7H2O, 0.41 mM NaH2PO4×H2O, 15 mM HEPES, 20 mM glucose, 0.25% BSA, pH 7.4) to prepare the transport solutions (10 μM compound, final DMSO<=0.5%). The transport solution (TL) is applied to the apical or basolateral donor side for measuring A-B or B-A permeability (3 filter replicates), respectively. The receiver side contains the same buffer as the donor side. After 30 min of accommodation, samples are collected at the start t0=0 min and at the end of the experiment tn=90 min from the donor and at 0, 30, 60, and 90 min also from the receiver chamber. Volume removed is replenished by HTP-4 buffer. The compound concentration in the samples is measured by HPLC-MS/MS or scintillation counting. The permeability coefficient (Papp) and efflux ratio are calculated according to: Papp [cm/s]=(concentration receiver [nM]*volume receiver [mL]/time interval [sec])*(1/filter area)*(1/donor concentration [nM]).

SMILES | pIC50 [1] | Papp A→B at 90 min, 10 μM [2] [×10⁻⁶ cm/s] | Papp B→A at 90 min, 10 μM [2] [×10⁻⁶ cm/s]
CCn1c(CNC(=O)c2nc(Cl)cnc2N)[n+](CC2CCOCC2)c2ccc(OCC(=O)N(Cc3nc(C)ccc3[O-])C[C@H](C)O)cc21.O=C(O)C(F)(F)F.O=C(O)C(F)(F)F [Example 1.03] | 8.10 | 0.4 | 0.1
CCn1c(CNC(=O)c2nc(Cl)cnc2N)[n+](CC)c2ccc(OCC(=O)NCCN(C)C)cc21.O=C[O-] [Example 2.06] | 9.00 | < 1 | 0.2
CC[n+]1c(CNC(=O)c2nc(Cl)cnc2N)n(C[C@@H]2CCCO2)c2cc(OCC(=O)N3CC[S+]([O-])CC3)ccc21.O=C([O-])C(F)(F)F [Example 1.01] | 8.00 | 0.8 | 0.3
CCn1c(CNC(=O)c2nc(Cl)cnc2N)[n+](CC)c2ccc(OCC(=O)N3CCC(N)CC3)cc21 [Example 2.03] | 9.00 |  | 
CCn1c(CNC(=O)c2nc(Cl)cnc2N)[n+](CC)c2ccc(OCC(=O)NCCOCP(C)(C)=O)cc21.O=C([O-])C(F)(F)F [Example 2.04] | 8.52 | < 0.7 | 0.4
CCn1c(CNC(=O)c2nc(Cl)cnc2N)[n+](CC)c2ccc(OCC(=O)N(Cc3nc(C)ccc3O)C[C@H](C)O)cc21.O=C([O-])C(F)(F)F [Example 2.05] | 8.52 | 0.4 | 0.1
CC[n+]1c(CNC(=O)c2nc(Cl)cnc2N)n(CCO)c2cc(OCC(=O)NCc3ccc(P(C)(C)=O)cc3)ccc21.O=C([O-])C(F)(F)F [Example 1.02] | 8.00 | 0.6 | 0.3
CCn1c(CNC(=O)c2nc(Cl)cnc2N)[n+](CC)c2ccc(OCC(=O)NCCCN)cc21.O=C(O)C(F)(F)F.O=C([O-])C(F)(F)F [Example 2.01] |  | 0.2 | 0.5
CCn1c(CNC(=O)c2nc(Cl)cnc2N)[n+](CC)c2ccc(OCC(=O)NCCNC)cc21 [Example 2.02] | 8.70 |  | 

Reference: patent US10221202B2, “Annelated phenoxyacetamides” (Boehringer Ingelheim International GmbH, priority 2015, dated 2019)
